These results are taken from patent US20210317401A1, “USE OF CYSTEINE OR SALT THEREOF FOR CRYOPROTECTING LACTIC ACID BACTERIA” (CJ CHEILJEDANG CORPORATION, priority 2018, published 2021).

For assay [1], the system named is Lactobacillus plantarum CJLP133. Briefly: High-concentration culturing of lactic acid bacteria, number of live bacteria. It counts as cell-based. The following applies: 0.1% in MRS liquid medium; from live bacteria counts. As for the experimental part:
(§1) A Lactobacillus plantarum CJLP133 strain was cultured at 37° C. for 11 hours in an MRS liquid medium (Difco, USA) containing 0.1% of cysteine monohydrochloride.
(§2) A Lactobacillus plantarum CJLP133 strain was cultured at 37° C. for 11 hours in an MRS liquid medium (Difco, USA) not containing 0.1% of cysteine monohydrochloride.
A lactic acid bacteria culture solution was diluted with sterilized physiological water and smeared so that 30 to 300 colonies were formed in an MRS agar plate medium, and then cultured at 37° C. for 24 hours. The number of colonies observed after the culturing was counted and calculated as the number of live bacteria per mL.

Assay [2] has the same test system. Briefly: High-concentration culturing of lactic acid bacteria, O.D. value. The format is cell-based. As to conditions: 0.1% in MRS liquid medium; from O.D. results. As to the method:
as §1, §2
The evaluation of the lactic acid bacteria culturing was measured by diluting a lactic acid bacteria culture solution 20 times at 600 nm using a spectrophotometer (NanoPhotometer, IMPLEN) according to the method for measuring an optical density (O.D.) value of Korean Food Additives Codex.

As for `Cl.N[C@@H](CS)C(=O)O` [cysteine monohydrochloride], the “ability to accelerate the growth of lactic acid bacteria (in words)” value in assay [1] and in assay [2] was “excellent” in each case.
